Assay results as given in US20200345728A1, “COMPOSITIONS AND METHODS FOR TREATMENT OF ATHEROSCLEROSIS” (NovMetaPharma Co., Ltd., priority 2019, published 2020).

How the values were obtained:
[1] = tested on: RAW264.7 macrophage cells; assay: FACS analysis of cell viability in M2 activated RAW264.7 cultures; format: cell-based
Experimental: RAW264.7 macrophage cells, untreated and treated with IL-4 (20 ng/ml), were stained with 1:1000 diluted viability stain (BD Horizon Fixable Viability Stain 660). Cells were analyzed by FACS and gated for unstained (viable) and stained (non-viable) populations.

[2] = tested on: RAW264.7 macrophage cells; assay: Charcoal phagocytosis assay in activated RAW264.7 macrophage cells; format: cell-based; settings: during M1 activation (1 μg/ml LPS/20 ng/ml IFN); 50 μM CHP, 10 μM Zn
Experimental: RAW264.7 macrophage cells (ATCC® TIB-71) were activated to either inflammatory M1 macrophage phenotype (with 1 μg/ml LPS/20 ng/ml IFN) or to the anti-inflammatory M2 phenotype (with 20 ng/ml IL-4) in the presence or absence of Cyclo-Z (50 μM CHP/10 μM Zn) treatment. Charcoal dust was added to the culture as a marker of M1 phagocytosis activity.
To compare between CHP and Zinc effects in Cyclo-Z on charcoal binding activities, we determined the phagocytosis activity of CHP (50 μM CHP) or Zinc (10 μM Zn) alone or Cyclo-Z during activation of M1 macrophages (with 1 μg/ml LPS/20 ng/ml IFN).

[3] = DPPH colorimetric anti-oxidant assay; format: biochemical; settings: incubation with DPPH, various concentrations
From the text: In this colorimetric assay, DPPH functions as a free radical that can be inactivated by anti-oxidant compounds resulting in loss of color. […] Zinc was not tested alone since it was not completely soluble in the organic solvents needed for the assay. Ascorbic Acid functions as an antioxidant positive control.

ROS in VSMCs = assay: ROS generation in VSMCs analyzed by FACS (CM-H2CFDA fluorescence); format: cell-based; settings: 45 minutes
Experimental: (§1) VSMC were seeded (1.25×10^5 cells/well in 12-well plates) and incubated at 37° C. for 24 hr. Cultures were then subjected to various treatments (as shown in Table 1) to induce ROS for 45 minutes (at 37° C.) along with 10 μM CM-H2CFDA (Molecular Probes, Inc., Eugene, Oreg.). CM-H2DCFDA is a chloromethyl derivative of H2DCFDA, useful as an indicator for ROS in cells. Subsequent oxidation of CM-H2CFDA yields a fluorescent adduct that is trapped inside the cell. At the end of treatment period cells were trypsinized, washed, and analyzed by FACS for ROS (CM-H2CFDA fluorescence) and viability using a viability stain (BD Horizon Fixable Viability Stain 660; BD Biosciences, San Jose, Calif.).

VSMCs = assay: Cell viability in VSMCs analyzed by FACS (viability stain); format: cell-based; settings: 45 minutes
Experimental: as §1

[4] = tested on: mouse spleen cells (B-cell activation); assay: B-cell activation in mouse spleen cells; format: cell-based; settings: alone, 4 days; LPS 1 μg/ml; Cyclo-Z 50 μM CHP/10 μM Zn
Experimental: Mouse spleen cells were isolated from wild type C57BL/6J mice (The Jackson Laboratory; strain 000632) and plated under standard cell culture conditions in the presence or absence of Cyclo-Z (50 μM CHP/10 μM zinc) and/or LPS for 4 days. Nodules indicating increased B-cell activation and proliferation were visualized by microscopy.

[5] = added with IL-4 (20 ng/ml), M2 activated

O=C1N[C@@H](Cc2cnc[nH]2)C(=O)N2CCC[C@@H]12 [CHP, cyclo-Hispro]
Percent Non-Viability [1, 5]: 14.13%
Percent Viability (Stained) [1, 5]: 73.63%
charcoal uptake (phagocytosis activity) [2]: did not show any effects
anti-oxidant activity (DPPH) [3]: concentration dependent anti-oxidant activity

OO [H2O2, hydrogen peroxide]
ROS Population (ROS in VSMCs; H2O2 (5 μL) alone): 81.33
ROS Population (ROS in VSMCs; H2O2 (10 μL) alone): 50.63
Viability Population (VSMCs; H2O2 (5 μL) alone): 22.31
Viability Population (VSMCs; H2O2 (10 μL) alone): 7.33

OC[C@H]1OC(O)[C@H](O)[C@@H](O)[C@@H]1O (stereo partly shown) [HG]
ROS Population (ROS in VSMCs; HG (50 mM) alone): 0.04
ROS Population (ROS in VSMCs; HG (100 mM) alone): 0.04
Viability Population (VSMCs; HG (50 mM) alone): 61.63
Viability Population (VSMCs; HG (100 mM) alone): 63.9

[Cl-].[Cl-].[Zn+2] [Zinc, ZnCl2]
Percent Non-Viability [1, 5]: 33.49%
Percent Viability (Stained) [1, 5]: 58.47%
charcoal uptake (phagocytosis activity) [2]: somewhat effective

IL-4: Interleukin-4, cytokine used to activate macrophages to M2 phenotype
Percent Non-Viability ([1]; IL-4 (20 ng/ml) alone): 17.63%

lipopolysaccharide [LPS]
ROS Population (ROS in VSMCs; LPS alone): 0.09
B-cell activation/proliferation (nodules) [4]: induced some B-cell activation/proliferation
Viability Population (VSMCs; LPS alone): 75.81
